Reference: patent publication US8530489B2 (Vertex Pharmaceuticals Incorporated, priority 2006, dated 2013)

These compounds were tested against PLK1 (Homo sapiens, UniProt P53350) (assay: PLK1 Inhibition Assay I (radioactive-phosphate incorporation)). Settings: Ki(app); PLK1 Inhibition Assay I or II (table does not say which).
Assay type: biochemical
Outline: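 Ki(app) values came from non-linear regression of initial rates after background subtraction, with phosphopeptide measured by phosphocellulose filter binding and scintillation counting. PLK1 at 2 nM was preincubated with compound (typically from 10 μM, 2-fold dilutions) for 10 min, then run 240 min at 25° C with 350 μM [γ-33P]ATP and 450 μM peptide substrate in HEPES pH 7.5 buffer.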

PLK1, sequence (P53350 whole entry): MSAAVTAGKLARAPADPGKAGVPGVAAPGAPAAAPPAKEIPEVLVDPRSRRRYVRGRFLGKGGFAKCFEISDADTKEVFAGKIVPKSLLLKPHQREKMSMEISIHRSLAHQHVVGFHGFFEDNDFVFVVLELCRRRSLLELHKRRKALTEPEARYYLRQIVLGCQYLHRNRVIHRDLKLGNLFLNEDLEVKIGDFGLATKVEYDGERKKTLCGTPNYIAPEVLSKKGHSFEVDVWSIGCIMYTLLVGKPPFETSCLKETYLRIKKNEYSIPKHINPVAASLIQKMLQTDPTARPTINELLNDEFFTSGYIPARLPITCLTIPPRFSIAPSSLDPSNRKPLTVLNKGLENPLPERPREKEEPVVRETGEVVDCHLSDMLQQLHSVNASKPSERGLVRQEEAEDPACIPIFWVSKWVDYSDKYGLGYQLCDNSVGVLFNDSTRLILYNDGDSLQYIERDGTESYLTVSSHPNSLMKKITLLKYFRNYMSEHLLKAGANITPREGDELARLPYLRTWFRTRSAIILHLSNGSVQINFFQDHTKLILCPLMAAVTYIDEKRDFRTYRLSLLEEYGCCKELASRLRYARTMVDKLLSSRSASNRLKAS

| SMILES | Ki [nM] |
| --- | --- |
| CC(Nc1ncc(C#N)c(-c2c[nH]c3ncc(C(F)(F)F)cc23)n1)c1ccc(N(C)C)nc1 (centres unmarked) [Compound I-143, 2-(1-(6-(dimethylamino)pyridin-3-yl)ethylamino)-4-(5-(trifluoromethyl)-1H-pyrrolo[2,3-b]pyridin-3-yl)pyrimidine-5-carbonitrile] | < 3 |
| COc1ncc([C@@H](C)Nc2ncc(C#N)c(-c3c[nH]c4ncc(C(F)(F)F)cc34)n2)cn1 [Compound I-303, 2-(I-1-(2-methoxypyrimidin-5-yl)ethylamino)-4-(5-(trifluoromethyl)-1H-pyrrolo[2,3-b]pyridin-3-yl)pyrimidine-5-carbonitrile] | < 3 |
| N#Cc1cnc(Sc2ccccc2)nc1-c1c[nH]c2ncc(C(F)(F)F)cc12 [II-0, 2-(phenylthio)-4-(5-(trifluoromethyl)-1H-pyrrolo[2,3-b]pyridin-3-yl)pyrimidine-5-carbonitrile] | 3 to 40 |
| C#CCNc1ncc(C#N)c(-c2c[nH]c3ncc(C(F)(F)F)cc23)n1 [Compound I-79, 2-(prop-2-ynylamino)-4-(5-(trifluoromethyl)-1H-pyrrolo[2,3-b]pyridin-3-yl)pyrimidine-5-carbonitrile] | > 40 |
| N#Cc1cnc(NC2CCCc3ccccc32)nc1-c1c[nH]c2ncc(C(F)(F)F)cc12 (centres unmarked) [Compound I-34, 2-(1,2,3,4-tetrahydronaphthalen-1-ylamino)-4-(5-(trifluoromethyl)-1H-pyrrolo[2,3-b]pyridin-3-yl)pyrimidine-5-carbonitrile] | > 40 |
| CC(Nc1ncc(C#N)c(-c2c[nH]c3ncc(C(F)(F)F)cc23)n1)c1ccc(O[C@@H]2CCN(C)C2)nc1 (stereo partly drawn) [Compound I-271, 2-(1-(6-((R)-1-methylpyrrolidin-3-yloxy)pyridin-3-yl)ethylamino)-4-(5-(trifluoromethyl)-1H-pyrrolo[2,3-b]pyridin-3-yl)pyrimidine-5-carbonitrile] | 3 to 40 |
| N#Cc1cnc(NCC2CCCCC2)nc1-c1c[nH]c2ncc(C(F)(F)F)cc12 [Compound I-29, 2-(cyclohexylmethylamino)-4-(5-(trifluoromethyl)-1H-pyrrolo[2,3-b]pyridin-3-yl)pyrimidine-5-carbonitrile] | 3 to 40 |
| Cc1ccc(C)c(CNc2ncc(C#N)c(-c3c[nH]c4ncc(C(F)(F)F)cc34)n2)c1 [Compound I-60, 2-(2,5-dimethylbenzylamino)-4-(5-(trifluoromethyl)-1H-pyrrolo[2,3-b]pyridin-3-yl)pyrimidine-5-carbonitrile] | 3 to 40 |
| C[C@@H](Nc1ncc(C#N)c(-c2c[nH]c3ncc(C(F)(F)F)cc23)n1)C(=O)NC1CCCC1O (stereo partly drawn) [IA-13, (2R)-2-(5-cyano-4-(5-(trifluoromethyl)-1H-pyrrolo[2,3-b]pyridin-3-yl)pyrimidin-2-ylamino)-N-(2-hydroxycyclopentyl)propanamide] | 3 to 40 |
| CCC(Nc1ncc(C#N)c(-c2c[nH]c3ncc(C(F)(F)F)cc23)n1)C1CCN(S(=O)(=O)C(C)C)CC1 (centres unmarked) [Compound I-182, 2-(1-(1-(isopropylsulfonyl)piperidin-4-yl)propylamino)-4-(5-(trifluoromethyl)-1H-pyrrolo[2,3-b]pyridin-3-yl)pyrimidine-5-carbonitrile] | 3 to 40 |
| CC(C)(C)[C@@H](CO)Nc1ncc(C#N)c(-c2c[nH]c3ncc(C(F)(F)F)cc23)n1 [Compound I-111, 2-((S)-1-hydroxy-3,3-dimethylbutan-2-ylamino)-4-(5-(trifluoromethyl)-1H-pyrrolo[2,3-b]pyridin-3-yl)pyrimidine-5-carbonitrile] | < 3 |
| C[C@@H](Nc1ncc(C#N)c(-c2c[nH]c3ncc(C(F)(F)F)cc23)n1)[C@H]1CC[C@H](O)CC1 [Compound I-179, 2-((R)-1-((1r,4R)-4-hydroxycyclohexyl)ethylamino)-4-(5-(trifluoromethyl)-1H-pyrrolo[2,3-b]pyridin-3-yl)pyrimidine-5-carbonitrile] | < 3 |
| N#Cc1cnc(NCc2ccc(F)cc2)nc1-c1c[nH]c2ncc(C(F)(F)F)cc12 [Compound I-22, 2-(4-fluorobenzylamino)-4-(5-(trifluoromethyl)-1H-pyrrolo[2,3-b]pyridin-3-yl)pyrimidine-5-carbonitrile] | > 40 |
| C[C@@H](Nc1ncc(C#N)c(-c2c[nH]c3ncc(C(F)(F)F)cc23)n1)C1CCN(C(=O)[C@H](N)c2ccccc2)CC1 [Compound I-248, 2-((R)-1-(1-((R)-2-amino-2-phenylacetyl)piperidin-4-yl)ethylamino)-4-(5-(trifluoromethyl)-1H-pyrrolo[2,3-b]pyridin-3-yl)pyrimidine-5-carbonitrile] | 3 to 40 |
| CC(=O)NCCNc1ncc(C#N)c(-c2c[nH]c3ncc(C(F)(F)F)cc23)n1 [Compound I-40, N-(2-(5-cyano-4-(5-(trifluoromethyl)-1H-pyrrolo[2,3-b]pyridin-3-yl)pyrimidin-2-ylamino)ethyl)acetamide] | > 40 |
| CC[C@@H](C)[C@@H](CO)Nc1ncc(C#N)c(-c2c[nH]c3ncc(C(F)(F)F)cc23)n1 [Compound I-116, 2-((2S,3R)-1-hydroxy-3-methylpentan-2-ylamino)-4-(5-(trifluoromethyl)-1H-pyrrolo[2,3-b]pyridin-3-yl)pyrimidine-5-carbonitrile] | 3 to 40 |
| C[C@@H](Nc1ncc(C#N)c(-c2c[nH]c3ncc(C(F)(F)F)cc23)n1)c1ccc(NS(C)(=O)=O)c(F)c1 [Compound I-177, N-(4-((1R)-1-(5-cyano-4-(5-(trifluoromethyl)-1H-pyrrolo[2,3-b]pyridin-3-yl)pyrimidin-2-ylamino)ethyl)-2-fluorophenyl)methanesulfonamide] | < 3 |
| N#Cc1cnc(NCCCN2CCOCC2)nc1-c1c[nH]c2ncc(C(F)(F)F)cc12 [Compound I-70, 2-(3-morpholinopropylamino)-4-(5-(trifluoromethyl)-1H-pyrrolo[2,3-b]pyridin-3-yl)pyrimidine-5-carbonitrile] | > 40 |
| N#Cc1cnc(N[C@H]2CCOC2)nc1-c1c[nH]c2ncc(C(F)(F)F)cc12 [Compound I-78, 2-((S)-tetrahydrofuran-3-ylamino)-4-(5-(trifluoromethyl)-1H-pyrrolo[2,3-b]pyridin-3-yl)pyrimidine-5-carbonitrile] | 3 to 40 |
| CCC(Nc1ncc(C#N)c(-c2c[nH]c3ncc(C(F)(F)F)cc23)n1)c1ccccc1 (centres unmarked) [Compound I-16, 2-(1-phenylpropylamino)-4-(5-(trifluoromethyl)-1H-pyrrolo[2,3-b]pyridin-3-yl)pyrimidine-5-carbonitrile] | 3 to 40 |
| CC(Nc1ncc(C#N)c(-c2c[nH]c3ncc(C(F)(F)F)cc23)n1)c1ccc(N2CC(O)(C3CC3)C2)nc1 (centres unmarked) [Compound I-194, 2-(1-(6-(3-cyclopropyl-3-hydroxyazetidin-1-yl)pyridin-3-yl)ethylamino)-4-(5-(trifluoromethyl)-1H-pyrrolo[2,3-b]pyridin-3-yl)pyrimidine-5-carbonitrile] | 3 to 40 |
| N#Cc1cnc(NCc2ccc(-n3cccn3)cc2)nc1-c1c[nH]c2ncc(C(F)(F)F)cc12 [Compound I-92, 2-(4-(1H-pyrazol-1-yl)benzylamino)-4-(5-(trifluoromethyl)-1H-pyrrolo[2,3-b]pyridin-3-yl)pyrimidine-5-carbonitrile] | > 40 |
| CC(Nc1ncc(C#N)c(-c2c[nH]c3ncc(C(F)(F)F)cc23)n1)[C@H]1C[C@H](O)C1 (stereo partly drawn) [Compound I-269, 2-((S)-1-((1r,3S)-3-hydroxycyclobutyl)ethylamino)-4-(5-(trifluoromethyl)-1H-pyrrolo[2,3-b]pyridin-3-yl)pyrimidine-5-carbonitrile] | 3 to 40 |
